Reference: US7589169B2, “Compositions for treatment with glucagon-like peptide, and methods of making and using the same” (Pharmain Corporation, priority 2002, dated 2009)

Tested on: rat pancreatic ductal cell line ARIP
Experiment: Trans-differentiation of ARIP ductal cells, RT-PCR of beta-cell specific genes
Type: cell-based
Details: ARIP cells cultured with GLP-1, RT-PCR
Experimental: Based on previous studies, insulin mRNA should be detectable after 48 h, GLUT-2 after 24 h and glucokinase mRNA at 72 h. […] RT-PCR for β-actin will be used as a control for cDNA loading.

glucagon-like peptide 1 [GLP-1]
time after which GLUT-2 mRNA should be detectable: 24 h | time after which insulin mRNA should be detectable: 48 h | time at which glucokinase mRNA should be detectable: 72 h
